The source made the active and inactive calls.
Assays:
Assay type in all cases: functional, organism-based
Mus musculus [1] = assay: Anti-inflammatory activity in cigarette smoke-predisposed BALB/c mouse model of NTHi-inflammation assessed as reduction in macrophage infiltration in BAL fluid at 10 mg/kg, ip administered at 1 and 24 hrs post NTHi-challenge by Wright-staining based differential cell counting method
Mus musculus [2] = assay: Anti-inflammatory activity in cigarette smoke-predisposed BALB/c mouse model of NTHi-inflammation assessed as reduction in neutrophil infiltration in BAL fluid at 10 mg/kg, ip administered at 1 and 24 hrs post NTHi-challenge by Wright-staining based differential cell counting method
Mus musculus [3] = assay: Antiinflammatory activity in cigarette smoke-predisposed BALB/c mouse model of NTHi-inflammation assessed as reduction in lung inflammation score at 10 mg/kg, ip administered at 1 and 24 hrs post NTHi-challenge by hematoxylin and eosin staining-based method
Mus musculus [4] = assay: Activation of Nrf2 in cigarette smoke-predisposed BALB/c mouse model of NTHi-inflammation assessed as increase in lung OH-1 expression at 5 and 10 mg/kg, ip administered post 1 and 24 hrs of NTHi-challenge by RT-PCR method
Mus musculus [5] = assay: Antiinflammatory activity in cigarette smoke-predisposed BALB/c mouse model of NTHi-inflammation assessed as suppression of lung TNF-alpha level at 5 and 10 mg/kg, ip administered post 1 and 24 hrs of NTHi-challenge by ELISA
Mus musculus [6] = assay: Antiinflammatory activity in cigarette smoke-predisposed BALB/c mouse model of NTHi-inflammation assessed as suppression of lung IL-1 beta level at 5 and 10 mg/kg, ip administered post 1 and 24 hrs of NTHi-challenge by ELISA
Mus musculus [7] = assay: Antiinflammatory activity in cigarette smoke-predisposed BALB/c mouse model of NTHi-inflammation assessed as suppression of lung CXCL1/KC level at 5 and 10 mg/kg, ip administered post 1 and 24 hrs of NTHi-challenge by ELISA
[8] = Downregulation of MMP8 gene expression in lungs of cigarette smoke-predisposed BALB/c mouse model of NTHi-inflammation at 5 and 10 mg/kg, ip administered post 1 and 24 hrs of NTHi-challenge by RT-PCR method
[9] = Downregulation of MMP9 gene expression in lungs of cigarette smoke-predisposed BALB/c mouse model of NTHi-inflammation at 5 and 10 mg/kg, ip administered post 1 and 24 hrs of NTHi-challenge by RT-PCR method
Mus musculus [10] = assay: Antiinflammatory activity in cigarette smoke-predisposed BALB/c mouse model of NTHi-inflammation assessed as suppression of lung 8-OHdG level at 5 and 10 mg/kg, ip administered post 1 and 24 hrs of NTHi-challenge by ELISA
[11] = Reduction of Keap1 gene expression in lungs of cigarette smoke-predisposed BALB/c mouse model of NTHi-inflammation at 5 and 10 mg/kg, ip administered post 1 and 24 hrs of NTHi-challenge by RT-PCR method
Mus musculus [12] = assay: Activation of Nrf2 in cigarette smoke-predisposed BALB/c mouse model of NTHi-inflammation assessed as increase in lung GR expression at 5 and 10 mg/kg, ip administered post 1 and 24 hrs of NTHi-challenge by RT-PCR method
Mus musculus [13] = assay: Activation of Nrf2 in cigarette smoke-predisposed BALB/c mouse model of NTHi-inflammation assessed as increase in lung GCLM expression at 5 and 10 mg/kg, ip administered post 1 and 24 hrs of NTHi-challenge by RT-PCR method
Mus musculus [14] = assay: Activation of Nrf2 in cigarette smoke-predisposed BALB/c mouse model of NTHi-inflammation assessed as increase in lung GPx2 expression at 5 and 10 mg/kg, ip administered post 1 and 24 hrs of NTHi-challenge by RT-PCR method
Mus musculus [15] = assay: Activation of Nrf2 in cigarette smoke-predisposed BALB/c mouse model of NTHi-inflammation assessed as increase in lung NQO1 expression at 5 and 10 mg/kg, ip administered post 1 and 24 hrs of NTHi-challenge by RT-PCR method
Mus musculus [16] = assay: Induction of Nrf2 nuclear translocation in cigarette smoke-predisposed BALB/c mouse model of NTHi-inflammation assessed as Nrf2 binding to antioxidant response element consensus DNA binding site at 5 and 10 mg/kg, ip administered post 1 and 24 hrs of NTHi-challenge by ELISA

C=C1CC[C@@H]2[C@](C)(CO)[C@H](O)CC[C@@]2(C)[C@@H]1C/C=C1/C(=O)OC[C@H]1O
active: Activity (Mus musculus [1]) | Activity (Mus musculus [2]) | Activity (Mus musculus [3]) | Activity (Mus musculus [4]) | inhibition (Mus musculus [5]) | inhibition (Mus musculus [6]) | inhibition (Mus musculus [7]) | Activity [8] | Activity [9] | inhibition (Mus musculus [10]) | Activity [11] | Activity (Mus musculus [12]) | Activity (Mus musculus [13]) | Activity (Mus musculus [14]) | Activity (Mus musculus [15]) | Activity (Mus musculus [16])

Source: ChEMBL document CHEMBL3856181, “Cigarette Smoke-Induced Lung Disease Predisposes to More Severe Infection with Nontypeable Haemophilus influenzae: Protective Effects of Andrographolide” (J Nat Prod, 2016)
